Key:
Test in all cases: relative viability (nuclei count vs DMSO), 5 days (fraction); higher = more cells survive
Seliciclib + Decitabine = compound: CC[C@H](CO)Nc1nc(NCc2ccccc2)c2ncn(C(C)C)c2n1 [Seliciclib] + Nc1ncn([C@H]2C[C@H](O)[C@@H](CO)O2)c(=O)n1 [Decitabine] (partner 2 µM)
Procedure, shortened: (§1)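 Relative viability was taken as the ratio of nuclei in treated wells to nuclei in vehicle wells. Lung cancer cell lines in 1536-well plates received compounds by pin tool one day after seeding, either one drug alone or a fixed anchor-drug dose plus five library-drug doses (not always all listed) in √10 steps. Nuclei were counted on 4× images after 5 days of treatment, and values are medians of duplicate plates.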

Seliciclib + Luminespib = compound: CC[C@H](CO)Nc1nc(NCc2ccccc2)c2ncn(C(C)C)c2n1 [Seliciclib] + CCNC(=O)c1noc(-c2cc(C(C)C)c(O)cc2O)c1-c1ccc(CN2CCOCC2)cc1 [Luminespib] (partner 0.01 µM)
Procedure, shortened: as §1

Seliciclib + Lapatinib = compound: CC[C@H](CO)Nc1nc(NCc2ccccc2)c2ncn(C(C)C)c2n1 [Seliciclib] + CS(=O)(=O)CCNCc1ccc(-c2ccc3ncnc(Nc4ccc(OCc5cccc(F)c5)c(Cl)c4)c3c2)o1 [Lapatinib] (partner 2 µM)
Procedure, shortened: as §1

Seliciclib + Olaparib = compound: CC[C@H](CO)Nc1nc(NCc2ccccc2)c2ncn(C(C)C)c2n1 [Seliciclib] + O=C(c1cc(Cc2n[nH]c(=O)c3ccccc23)ccc1F)N1CCN(C(=O)C2CC2)CC1 [Olaparib] (partner 8 µM)
Procedure, shortened: as §1

Cell Line	relative viability (Seliciclib + Decitabine; first compound 0.08 µM)	relative viability (Seliciclib + Decitabine; first compound 0.253 µM)	relative viability (Seliciclib + Decitabine; first compound 0.8 µM)	relative viability (Seliciclib + Decitabine; first compound 2.53 µM)	relative viability (Seliciclib + Decitabine; first compound 8 µM)	relative viability (Seliciclib + Luminespib; first compound 0.08 µM)	relative viability (Seliciclib + Luminespib; first compound 0.253 µM)	relative viability (Seliciclib + Luminespib; first compound 0.8 µM)	relative viability (Seliciclib + Luminespib; first compound 2.53 µM)	relative viability (Seliciclib + Luminespib; first compound 8 µM)	relative viability (Seliciclib + Lapatinib; first compound 0.08 µM)	relative viability (Seliciclib + Lapatinib; first compound 0.253 µM)	relative viability (Seliciclib + Lapatinib; first compound 0.8 µM)	relative viability (Seliciclib + Lapatinib; first compound 2.53 µM)	relative viability (Seliciclib + Lapatinib; first compound 8 µM)	relative viability (Seliciclib + Olaparib; first compound 0.08 µM)	relative viability (Seliciclib + Olaparib; first compound 0.253 µM)	relative viability (Seliciclib + Olaparib; first compound 0.8 µM)	relative viability (Seliciclib + Olaparib; first compound 2.53 µM)	relative viability (Seliciclib + Olaparib; first compound 8 µM)
NCI-H2087	0.284	0.313	0.247	0.227	0.221	0.192	0.188	0.158	0.193	0.231	1.13	1.14	1.02	0.749	0.965	0.597	0.616	0.38	0.577	0.514
LU99A	0.914	0.777	0.978	0.837	0.739	0.267	0.196	0.209	0.191	0.268	1.01	0.923	1.02	0.666	0.537	0.252	0.264	0.284	0.279	0.278
NCI-H1355	0.35	0.334	0.356	0.374	0.38	0.722	0.638	0.643	0.713	0.684	0.961	0.834	0.94	0.927	0.929	0.715	0.697	0.727	0.779	0.635
NCI-H520	0.522	0.486	0.537	0.632	0.643	0.234	–	0.175	0.315	0.205	0.858	0.727	0.831	0.933	0.674	0.327	0.396	0.318	0.346	0.388
NCI-H661	0.552	0.597	0.549	0.511	0.435	0.9	1.07	0.853	0.809	0.756	0.522	0.463	0.473	0.452	0.391	0.674	0.768	0.695	0.724	0.674
NCI-H650	0.333	0.299	0.306	0.295	0.332	0.807	0.757	0.921	0.727	0.709	0.953	1.12	1.1	–	0.765	0.354	0.368	0.417	0.305	0.37
NCI-H647	0.314	0.235	0.562	0.453	0.452	0.111	0.206	0.127	0.128	0.163	1.25	1.11	1.07	1.28	1.01	0.526	0.433	0.512	0.649	0.313
201T	0.827	0.893	0.857	0.806	0.728	1.02	1.1	0.976	0.999	1.03	1.08	1.07	1	0.952	0.843	0.805	0.834	0.812	0.882	0.805
NCI-H838	0.457	0.508	0.437	0.411	0.381	0.356	0.27	0.332	0.28	0.344	0.967	0.92	0.926	0.868	0.362	0.729	0.765	0.762	0.773	0.635
SW 1573	0.497	0.515	0.474	0.408	0.663	0.727	0.431	0.219	0.197	0.243	1.09	1.06	1.02	1.1	0.869	0.473	0.487	0.527	0.471	0.425
PC-14	0.211	0.228	0.222	0.252	0.25	0.179	–	0.114	0.135	0.203	0.306	0.262	0.315	0.309	0.263	0.286	0.285	0.29	0.343	0.266
NCI-H1648	0.486	0.615	0.605	0.45	0.473	–	–	–	–	–	–	–	–	–	–	1.2	0.968	0.735	0.734	0.397
HCC-78	0.706	0.659	0.757	0.641	0.538	–	–	–	–	–	0.931	1.39	0.881	0.559	0.479	0.693	0.906	0.695	0.604	0.499
NCI-H2342	0.668	0.637	0.736	0.649	0.747	0.658	0.525	0.662	0.699	0.648	–	–	–	–	–	0.417	0.394	0.347	0.429	0.453
HCC-366	0.357	0.297	0.333	0.414	0.297	–	–	–	–	–	1.01	1.15	0.987	1.22	0.863	0.335	0.422	0.35	0.456	0.234
LCLC-103H	0.781	0.727	0.755	0.735	0.644	1.02	0.958	0.763	0.993	0.774	–	–	–	–	–	0.671	0.81	0.748	0.774	0.704
NCI-H1563	–	–	–	–	–	0.479	0.518	0.526	0.49	0.453	1.03	0.842	0.957	0.851	0.845	–	–	–	–	–
EBC-1	–	–	–	–	–	–	–	–	–	–	0.25	0.225	0.251	0.23	0.227	0.712	0.651	0.734	0.665	0.461
Calu-6	–	–	–	–	–	–	–	–	–	–	0.993	1.13	1.08	1.08	0.934	0.602	0.658	0.565	0.624	0.532
